Active and inactive are the calls of the source.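 How the source made its calls: active means EC50 of 10 µM or lower; inactive means EC50 above 10 µM.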
What follows are compounds tested against 5-hydroxytryptamine receptor 2A (Mus musculus) (UniProt P35363) (assay: agonist EC50 at mouse 5-HT2A receptor – cell-based, luminescence, CHO-K1, powder samples, dose response, late-stage follow-up (AID 720643)). Details: CHO-K1 mHTR2A beta-arrestin PathHunter luminescence.
Chain of 5-hydroxytryptamine receptor 2A (Mus musculus) (P35363 whole entry, looked up): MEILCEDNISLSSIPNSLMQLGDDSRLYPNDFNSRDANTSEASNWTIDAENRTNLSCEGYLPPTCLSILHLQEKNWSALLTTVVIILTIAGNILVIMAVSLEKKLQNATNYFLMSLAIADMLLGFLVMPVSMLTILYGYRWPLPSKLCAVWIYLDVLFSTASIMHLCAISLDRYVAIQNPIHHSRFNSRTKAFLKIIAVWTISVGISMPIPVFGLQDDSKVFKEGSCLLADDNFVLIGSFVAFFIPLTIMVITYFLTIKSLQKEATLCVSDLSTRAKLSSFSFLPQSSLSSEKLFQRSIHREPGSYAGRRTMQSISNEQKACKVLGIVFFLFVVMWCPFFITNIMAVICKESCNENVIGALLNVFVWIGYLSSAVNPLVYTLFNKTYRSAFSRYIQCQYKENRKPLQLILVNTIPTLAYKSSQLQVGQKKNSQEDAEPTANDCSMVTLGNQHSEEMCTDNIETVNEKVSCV

| Compound | EC50 |
| --- | --- |
| Cc1ccc(CN2CCN(c3ccccn3)CC2)s1 | > 76.1 µM (inactive) |
| CC1(C)C(C=C(Cl)Cl)C1C(=O)N1CCN(Cc2ccccc2)CC1 (stereo not drawn) | > 76.1 µM (inactive) |
| COc1ccc(CN2CCN(c3ncccn3)CC2)c(C)c1C | > 76.1 µM (inactive) |
| Clc1ccc(CN2CCN(c3ncccn3)CC2)cc1Cl | > 76.1 µM (inactive) |
| COc1cccc(OCC(O)CN2CCN(c3ccccn3)CC2)c1 (stereo not drawn) | > 76.1 µM (inactive) |
| Cc1cccc(CN2CCN(c3ncccn3)CC2)c1 | > 76.1 µM (inactive) |
| Cc1ccsc1CN1CCN(c2ccccn2)CC1 | > 76.1 µM (inactive) |
| OCC1(Cc2cccc(C(F)(F)F)c2)CCN(Cc2cc3ccccc3o2)CC1 | > 76.1 µM (inactive) |
| c1ccc(N2CCN(Cc3ccsc3)CC2)nc1 | > 76.1 µM (inactive) |
| Brc1ccc(CN2CCN(c3ccccn3)CC2)s1 | > 76.1 µM (inactive) |
| Cc1cccc(CN2CCN(c3ccccn3)CC2)c1 | > 76.1 µM (inactive) |
| c1ccc(COc2ccc(CN3CCN(c4ccccn4)CC3)cc2)cc1 | > 76.1 µM (inactive) |
| COc1cccc(-n2cc(CNCc3cn(C)nc3-c3ccccc3F)cn2)c1 | > 76.1 µM (inactive) |
| Fc1cccc(CN2CCN(c3ncccn3)CC2)c1 | > 76.1 µM (inactive) |
| COc1ccc(CN2CCN(c3ncccn3)CC2)c(OC)c1 | > 76.1 µM (inactive) |
| COc1cc(CN2CCN(c3ncccn3)CC2)cc(OC)c1 | > 76.1 µM (inactive) |
| COc1cc(Br)cc(CN2CCN(c3ncccn3)CC2)c1O | > 76.1 µM (inactive) |
| CC(=O)N1CCc2cc(C(=O)CN3CCN(c4cccc(Cl)c4)CC3)ccc21 | > 76.1 µM (inactive) |
| OC(COc1ccc2cc(Br)ccc2c1)CN1CCN(c2ccccn2)CC1 (stereo not drawn) | > 76.1 µM (inactive) |
| c1ccc(CN2CCN(c3ncccn3)CC2)cc1 | > 76.1 µM (inactive) |
| NC[C@@H]1O[C@H](C23CC4CC(CC(C4)C2)C3)Cc2c1ccc(O)c2O | > 76.1 µM (inactive) |
| CC(COc1ccccc1)N1CCC(CO)(Cc2ccccc2)CC1 (stereo not drawn) | > 76.1 µM (inactive) |
| Clc1ccc(CN2CCN(c3ncccn3)CC2)cc1 | > 76.1 µM (inactive) |
| Cn1cc(C(F)(F)F)nc1-c1ccc(OCC(O)CNCCOc2ccc(O)c(C(N)=O)c2)cc1 (stereo not drawn) | > 76.1 µM (inactive) |
| CC1CC(C)CN(CCOc2cccc(Cl)c2Cl)C1 (stereo not drawn) | > 76.1 µM (inactive) |
| CCOC(=O)N1CCN(Cc2ccc(OCC(O)CN3CCCCC3)cc2)CC1 (stereo not drawn) | > 76.1 µM (inactive) |
| C=CCN1CCc2nc(N)sc2CC1 | > 76.1 µM (inactive) |

| Compound | EC50 |
| --- | --- |
| CCn1c(=O)cc(SCC(=O)NCCCN2CCN(c3ccccc3F)CC2)c2ccccc21 | > 76.1 µM (inactive) |
| CC(=O)N1CCC(N2CCN(c3ccccc3F)CC2)CC1 | > 76.1 µM (inactive) |
| COc1ccc(CN2CCN(C(=O)c3ccco3)CC2)cc1OCc1ccccc1 | > 76.1 µM (inactive) |
| Clc1ccccc1CN1CCN(c2ccccc2)CC1 | > 76.1 µM (inactive) |
| Cc1ccc(CN2CCN(c3ncccn3)CC2)o1 | > 76.1 µM (inactive) |
| CC(C)C[C@H]1C(=O)N2CCC[C@H]2[C@]2(O)O[C@](NC(=O)[C@@H]3C=C4c5cccc6[nH]c(Br)c(c56)CC4N(C)C3)(C(C)C)C(=O)N12 (stereo partly drawn) | > 76.1 µM (inactive) |
| Clc1ccccc1CN1CCN(c2ncccn2)CC1 | > 76.1 µM (inactive) |
| O=C(c1ccco1)N1CCN(Cc2ccc(Cl)cc2)CC1 | > 76.1 µM (inactive) |
| NC1CCc2cc(O)c(O)cc2C1 (stereo not drawn) | > 76.1 µM (inactive) |
| CCc1ccc(CN2CCN(C(=O)c3ccco3)CC2)cc1 | > 76.1 µM (inactive) |
| Fc1ccc(F)c(CN2CCN(c3ncccn3)CC2)c1 | > 76.1 µM (inactive) |
| CCOC(=O)C1CCN(Cc2cccc(Oc3ccc(Cl)cc3)c2)CC1 | > 76.1 µM (inactive) |
| Cc1ccc(CN2CCN(c3ncccn3)CC2)c(C)c1 | > 76.1 µM (inactive) |
| O=C(CN1CCN(c2ccccn2)CC1)Nc1ccc(Oc2ccccc2)cc1 | > 76.1 µM (inactive) |
| COc1ccc(CN2CCN(c3ccccn3)CC2)c(OC)c1 | > 76.1 µM (inactive) |
| CN(c1ccc(C(=O)N2CCN(Cc3ccccc3)CC2)cc1)S(=O)(=O)c1ccc(Cl)cc1 | > 76.1 µM (inactive) |
| Brc1cccc(CN2CCN(c3ncccn3)CC2)c1 | > 76.1 µM (inactive) |
| Fc1ccccc1CN1CCN(c2ncccn2)CC1 | > 76.1 µM (inactive) |
| CCOc1ccc(NC(=O)CCN2CCN(c3ccccc3F)CC2)cc1 | > 76.1 µM (inactive) |
| COC(=O)C1=C(Cn2cnc3ccccc32)NC(=O)NC1c1cc(C)ccc1C (stereo not drawn) | 3.47 µM |
| COc1ccccc1C(=O)NCCN1CCN(c2ccccc2)CC1 | > 76.1 µM (inactive) |
| CCCN(CCC)C1CCc2cccc(O)c2C1 (stereo not drawn) | > 76.1 µM (inactive) |
| Oc1ccc(CN2CCN(c3ncccn3)CC2)cc1 | > 76.1 µM (inactive) |
| COc1ccc(CC2(CO)CCN(Cc3cc4ccccc4o3)CC2)cc1 | > 76.1 µM (inactive) |
| CCCN1CCC[C@H](c2cccc(O)c2)C1 | > 76.1 µM (inactive) |
| CCOc1cc(CN2CCN(C(=O)c3ccco3)CC2)ccc1OC | > 76.1 µM (inactive) |

Source: PubChem BioAssay AID720643 (The Scripps Research Institute Molecular Screening Center, 2013)
